Laboratory results published in patent US20240374730A1, “PHOTOACTIVATABLE PRODRUG NANOPARTICLES FOR COMBINED ANTI-ANGIOGENESIS AND PHOTODYNAMIC THERAPY” (The University of Hong Kong, priority 2021, published 2024).

Experiments:
[1] = system: VEGF-induced HUVEC tube formation; experiment: VEGF-induced HUVEC tube formation assay; format: cell-based, human; details: DAS equivalent dose 0.05 μM, 20 ng/mL VEGF165, 4 h
[2] = system: VEGF-stimulated human umbilical vein endothelial cells (HUVECs); experiment: MTT cell viability of VEGF-stimulated HUVECs (dasatinib vs Di-DAS); format: cell-based; details: HUVEC, 20 ng/mL VEGF165, 48 h, read-out: 50% inhibition concentration (IC50)
Protocol: . Cells were incubated with 20 ng/mL VEGF165 and co-treated with dasatinib or Di-DAS at various concentrations for 48 h. FIG. 4B VEGF-stimulated HUVEC tube formation assay of Di-DAS-VER. […] FIG. 4C Quantitative HUVEC cell viability of Di-DAS-VER by MTT assay. […] MTT assay was performed at 24 h after treatment. […] . DAS: dasatinib; VER: verteporfin.
We tested the in vitro anti-angiogenic activity of DAS and Di-DAS in VEGF-stimulated human umbilical vein endothelial cells (HUVECs). […] . To assess therapeutic efficacy of combined anti-VEGF and PDT treatment, thiazolyl blue tetrazolium bromide (MTT) assay was conducted for measuring VEGF-stimulated HUVEC cell viability.

[3] = system: VEGF-stimulated HUVECs; experiment: HUVEC scratch-wound healing assay; details: DAS group, irradiation not stated, 20 h

Molecule | inhibition of VEGF-induced HUVEC differentiation and formation of vessel-like tubes [1] | IC50 [2] [nM] | scratch wound recovery [3] [%]
verteporfin | could not inhibit |  | 
Cc1nc(Nc2ncc(C(=O)Nc3c(C)cccc3Cl)s2)cc(N2CCN(CCO)CC2)n1 [DAS, dasatinib] |  | 910 | 11.35
